Consider 2 compounds from patent US20240327364A1, “THERAPEUTIC TARGETING OF GPR68 TO INDUCE FERROPTOSIS” (University Of Maryland, Baltimore, priority 2023, published 2024).

Data set [1] has as its target T1, AURKC (Homo sapiens, UniProt Q9UQB9).
T1 construct: purchased DiscoveRx (Fremont, CA)
As to the kind of experiment: KinomeScan. The class given is binding. To be noted: read-out: % Control.

Data set [2] concerns the target T2, CDK8 (Homo sapiens, UniProt P49336).
T2 construct: purchased DiscoveRx (KinomeScan service)
Nature of the data set: KinomeScan. The class given is binding. To be noted: read-out: % Control.

Data set [3] has as its target T3, EGFR(L747-T751del, Sins) (Homo sapiens, UniProt P00533, DEL747-750/T751S).
T3 construct: purchased DiscoveRx (Fremont, CA), KinomeScan service
As to the kind of experiment: KinomeScan. It is filed as binding. As to conditions: read-out: % Control.

In data set [4] the target is T4, FRK (Homo sapiens, UniProt P42685).
T4 construct: purchased DiscoveRx (Fremont, CA)
As to the kind of experiment: KinomeScan. It is filed as binding. To be noted: read-out: % Control.

Data set [5] has as its target T5, LKB1 (Homo sapiens, UniProt Q15831).
T5 construct: purchased DiscoveRx
Nature of the data set: KinomeScan. The class given is binding. As to conditions: read-out: % Control.

Data set [6] addresses T6, PDGFRA (Homo sapiens, UniProt P16234).
T6 construct: purchased DiscoveRx (Fremont, CA)
As to the kind of experiment: KinomeScan. The class given is binding. To be noted: read-out: % Control.

The target of data set [7] is T7, PKN2 (Homo sapiens, UniProt Q16513).
T7 construct: purchased DiscoveRx (Fremont, CA)
As to the kind of experiment: KinomeScan. The class given is binding. As to conditions: read-out: % Control.

Data set [8] deals with T8, APJ (Homo sapiens, UniProt P35414).
T8 construct: host or cells: Chem-1 cells with promiscuous Gα15
As to the kind of experiment: GPCR Profiler. It is filed as cell-based.

Data set [9] deals with T9, FP (Homo sapiens, UniProt P43088).
T9 construct: host or cells: Chem-1 cells expressing Gα15
Nature of the data set: GPCR Profiler. It is filed as cell-based.

For data set [10], the target named is T10, NK2 (Homo sapiens, UniProt P21452).
T10 construct: host or cells: Chem-1 cells expressing Gα15
As to the kind of experiment: GPCR Profiler. The class given is cell-based.

The target of data set [11] is T11, 5-HT2A (Homo sapiens, UniProt P28223).
T11 construct: host or cells: Chem-1 cells with promiscuous Gα15
As to the kind of experiment: GPCR Profiler. It is filed as cell-based. On the procedure:
(§1) GPCR profiling assays were performed by Millipore (St. Louis, MO) using in cells expressing Gα15, a promiscuous G protein that enhances GPCR coupling to downstream Ca2+ signaling pathways. KinomeScan was conducted by DiscoveRx (Fremont, CA).
(§2) To identify the target of OGM1, the molecule was profiled for binding in a panel of 442 kinases (KinomeScan™, DiscoveRx™) and assessed its activity against 158 GPCRs in a single-point assay in Chem-1 cells that uses a promiscuous Gα15 protein to trigger calcium flux (see Table 9 and Table 10, below). […] Table 9. KinomeScan (DiscoverRx) profiling of OGM1.

Data set [12] concerns the target T12, PRP (Homo sapiens, UniProt P49683).
T12 construct: host or cells: Chem-1 cells with Gα15
Nature of the data set: GPCR Profiler. The class given is cell-based. On the procedure:
as §1, §2

The test system of data set [13] is panel of 442 kinases. As to the kind of experiment: KinomeScan panel (summary). The class given is binding. As to conditions: 10 uM.
Data set [14] has as its system SW480. As to the kind of experiment: Cell Titer-Glo viability, Colon adenocarcinoma. As to conditions: 72 hours. It is filed as cell-based. How it is done: OGM2 kills wide variety of cancer cell types. Cell sensitivity can be classified in to Very Sensitive (LC50<2 μM), Sensitive (LC50=2 to 10 μM), Mildly Sensitive (LC50>10 μM), and Refractory (no killing at 10 μM). The listed established cell were incubated with OGM2 at 2 μM or 10 μM for 72 hours under standard cell culture conditions, and relative cell number was assessed using Cell Titer-Glo Luminescent Cell Viability Assay (Promega™) following the manufacturer's instructions. Luminescence was determined using a Cytation 5 reader and Gen5 software package (BioTek™).
Cancer cells, which are very sensitive to killing by OGM2 (LCs <2 μM), with reported mRNA expression of GPR68 and the related proton sensing receptor GPR4. LC50's (concentrations causing 50% lethality) were determined using CellTiter-Glo (Promega™, G7570). Cells were plated in 12-well plates (CELLTREAT Scientific Products, 229112) in 1 ml of DMEM with high glucose, GlutaMAX, HEPES, or RPMI 1640 with Penicillin-Streptomycin (ThermoFisher™, 10564029, 11875119 and 15140122) and 10% FBS. Cells were incubated overnight at 37° C. in 5% CO2. Then 1 mL of fresh media was added with DMSO, OGM, or positive control (Erastin; APExBIO Technology, LLC, B1524) and cells incubated for 3 days. On the third day, all media was removed, cells were rinsed with 1×PBS, PBS was removed, and 200 μL of 1× Passive Lysis Buffer (Promega™, E1941) was added to each well. […]. […] Plates were briefly spun down and read on a GloMax-Multi Detection System (Promega™).
The cells listed in the tables above were incubated with OGM2 at 2 μM or 10 μM for 72 hours under standard cell culture conditions, and relative cell number was assessed using Cell Titer-Glo Luminescent Cell Viability Assay (Promega™) following the manufacturer's instructions. Luminescence was determined using a Cytation 5 reader and Gen5 software package (BioTek™). […] The consensus normalized expression value (“nTPM”=normalize transcript per million) was calculated as the maximum nTPM value for each gene in the two data sources.
(Cellular ATP, detected with luciferase, serves as a proxy for viable cell number.)

The test system of data set [15] is zebrafish embryos. As to the kind of experiment: Acridine orange stain of zebrafish embryos (cell death). As to conditions: in vivo.
The test system of data set [16] is A549. As to the kind of experiment: Acid-induced Mucin-5AC production. It is filed as cell-based, human. To be noted: pH 6.4 buffered media, 24 hours. How it is done:
Lung (A549) cells were plated in 6-well plates. The cells then were rinsed and protein was isolated. Dot blots were made with anti Mucin-5AC antibodies, and an equivalent amount of protein was run on a western blot to detect alpha tubulin. Lung (A549) cells were cultured as above, but in pH 6.4 buffered media with increasing concentrations of OGM2. Mucin5AC and alpha tubulin were detected in the same way.
In addition. A549 cells were cultured in pH 6.4 medium with or without OGM2 for 24 hours cells were then rinsed and then stained with Periodic Acid Staining solution which detects mucins. FIG. 30E is a schematic of cas9 mediated endogenous tagging of MU5AC genetic locus with nano-luciferase in A549 cells. For FIG. 30F, Muc5ac-Luc cells were cultured in pH 6.4 buffered medium with and without OGM2 for 24 hours. Cell lysates were then assayed for luciferase activity and normalized to untreated control. See results in FIG. 30F.

T10 sequence (P21452 whole entry): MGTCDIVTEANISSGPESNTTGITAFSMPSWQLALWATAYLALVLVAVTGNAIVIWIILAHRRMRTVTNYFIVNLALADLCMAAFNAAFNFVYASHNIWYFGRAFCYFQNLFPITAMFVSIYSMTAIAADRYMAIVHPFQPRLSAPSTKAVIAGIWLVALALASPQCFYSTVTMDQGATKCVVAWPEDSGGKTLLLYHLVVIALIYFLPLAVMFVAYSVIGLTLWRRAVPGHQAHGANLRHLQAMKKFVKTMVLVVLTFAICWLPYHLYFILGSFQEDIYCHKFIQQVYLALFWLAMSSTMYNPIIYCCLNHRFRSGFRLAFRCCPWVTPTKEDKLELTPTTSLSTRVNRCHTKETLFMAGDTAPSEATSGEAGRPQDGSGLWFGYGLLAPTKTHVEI
T9 sequence (P43088 whole entry): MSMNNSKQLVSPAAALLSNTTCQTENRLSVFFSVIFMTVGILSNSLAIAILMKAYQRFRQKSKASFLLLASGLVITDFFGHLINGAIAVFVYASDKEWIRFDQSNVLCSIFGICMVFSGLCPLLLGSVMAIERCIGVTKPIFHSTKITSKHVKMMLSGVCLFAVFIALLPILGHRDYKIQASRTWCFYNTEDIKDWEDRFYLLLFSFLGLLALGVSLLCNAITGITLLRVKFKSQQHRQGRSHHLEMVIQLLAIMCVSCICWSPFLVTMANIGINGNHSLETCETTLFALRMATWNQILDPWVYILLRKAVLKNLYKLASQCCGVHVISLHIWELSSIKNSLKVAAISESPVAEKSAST
T12 sequence (P49683 whole entry): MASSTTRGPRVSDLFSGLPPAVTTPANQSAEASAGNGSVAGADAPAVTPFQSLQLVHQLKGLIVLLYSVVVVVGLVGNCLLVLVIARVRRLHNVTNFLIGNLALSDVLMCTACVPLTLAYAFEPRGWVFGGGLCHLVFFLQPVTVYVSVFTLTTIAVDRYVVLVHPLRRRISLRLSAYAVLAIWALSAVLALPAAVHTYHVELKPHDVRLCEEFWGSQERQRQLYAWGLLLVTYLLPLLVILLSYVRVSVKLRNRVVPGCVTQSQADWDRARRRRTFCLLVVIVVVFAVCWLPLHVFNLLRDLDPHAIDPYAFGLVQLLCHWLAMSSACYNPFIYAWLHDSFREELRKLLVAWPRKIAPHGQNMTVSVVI
T8 sequence (P35414 whole entry, species assumed): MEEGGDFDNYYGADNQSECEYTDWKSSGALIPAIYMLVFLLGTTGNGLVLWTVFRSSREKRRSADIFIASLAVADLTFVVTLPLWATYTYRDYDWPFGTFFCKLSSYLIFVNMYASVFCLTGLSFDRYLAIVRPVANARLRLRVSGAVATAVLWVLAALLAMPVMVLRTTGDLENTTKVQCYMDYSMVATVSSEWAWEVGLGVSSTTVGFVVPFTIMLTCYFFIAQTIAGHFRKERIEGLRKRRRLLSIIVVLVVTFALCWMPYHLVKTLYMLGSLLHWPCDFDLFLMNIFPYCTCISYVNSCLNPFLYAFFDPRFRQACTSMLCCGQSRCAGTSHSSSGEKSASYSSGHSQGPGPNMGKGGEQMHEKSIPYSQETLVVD
T11 sequence (P28223 whole entry): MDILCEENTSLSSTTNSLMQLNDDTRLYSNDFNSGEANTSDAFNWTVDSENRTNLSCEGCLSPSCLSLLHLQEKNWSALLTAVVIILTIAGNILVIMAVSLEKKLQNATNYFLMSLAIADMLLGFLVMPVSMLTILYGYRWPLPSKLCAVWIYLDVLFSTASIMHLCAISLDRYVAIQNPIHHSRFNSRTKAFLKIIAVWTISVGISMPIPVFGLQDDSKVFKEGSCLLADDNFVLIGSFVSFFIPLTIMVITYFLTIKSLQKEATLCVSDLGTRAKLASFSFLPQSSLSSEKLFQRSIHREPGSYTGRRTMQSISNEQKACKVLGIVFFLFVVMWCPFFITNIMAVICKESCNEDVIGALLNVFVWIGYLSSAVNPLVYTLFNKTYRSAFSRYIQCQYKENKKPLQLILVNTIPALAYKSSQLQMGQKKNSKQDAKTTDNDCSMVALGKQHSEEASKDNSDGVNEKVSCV
T7 sequence (Q16513 whole entry): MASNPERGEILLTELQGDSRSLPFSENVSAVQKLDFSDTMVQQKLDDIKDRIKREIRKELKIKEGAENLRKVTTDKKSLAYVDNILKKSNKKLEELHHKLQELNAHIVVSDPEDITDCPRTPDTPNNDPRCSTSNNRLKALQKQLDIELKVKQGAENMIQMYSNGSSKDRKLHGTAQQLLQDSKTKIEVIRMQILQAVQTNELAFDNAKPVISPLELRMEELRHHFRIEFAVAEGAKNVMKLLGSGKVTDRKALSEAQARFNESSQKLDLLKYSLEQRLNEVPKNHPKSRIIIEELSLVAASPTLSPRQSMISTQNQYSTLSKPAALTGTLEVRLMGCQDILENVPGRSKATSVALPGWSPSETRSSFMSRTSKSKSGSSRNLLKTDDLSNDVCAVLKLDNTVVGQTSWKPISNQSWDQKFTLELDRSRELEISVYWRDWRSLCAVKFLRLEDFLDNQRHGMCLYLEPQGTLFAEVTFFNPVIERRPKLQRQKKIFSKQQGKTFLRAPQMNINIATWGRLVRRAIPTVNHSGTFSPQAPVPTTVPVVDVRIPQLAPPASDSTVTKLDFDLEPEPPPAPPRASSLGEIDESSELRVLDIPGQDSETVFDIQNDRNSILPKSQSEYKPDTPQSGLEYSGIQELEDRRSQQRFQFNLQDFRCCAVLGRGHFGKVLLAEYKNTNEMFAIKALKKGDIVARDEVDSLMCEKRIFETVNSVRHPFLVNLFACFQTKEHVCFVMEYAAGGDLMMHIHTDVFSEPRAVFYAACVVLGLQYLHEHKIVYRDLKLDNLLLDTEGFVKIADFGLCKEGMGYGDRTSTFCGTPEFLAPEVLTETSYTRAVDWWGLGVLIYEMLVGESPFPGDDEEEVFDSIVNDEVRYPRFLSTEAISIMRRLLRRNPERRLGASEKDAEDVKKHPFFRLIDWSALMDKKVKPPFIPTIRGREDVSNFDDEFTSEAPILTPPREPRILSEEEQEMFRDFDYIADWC
T6 sequence (P16234 24-1089): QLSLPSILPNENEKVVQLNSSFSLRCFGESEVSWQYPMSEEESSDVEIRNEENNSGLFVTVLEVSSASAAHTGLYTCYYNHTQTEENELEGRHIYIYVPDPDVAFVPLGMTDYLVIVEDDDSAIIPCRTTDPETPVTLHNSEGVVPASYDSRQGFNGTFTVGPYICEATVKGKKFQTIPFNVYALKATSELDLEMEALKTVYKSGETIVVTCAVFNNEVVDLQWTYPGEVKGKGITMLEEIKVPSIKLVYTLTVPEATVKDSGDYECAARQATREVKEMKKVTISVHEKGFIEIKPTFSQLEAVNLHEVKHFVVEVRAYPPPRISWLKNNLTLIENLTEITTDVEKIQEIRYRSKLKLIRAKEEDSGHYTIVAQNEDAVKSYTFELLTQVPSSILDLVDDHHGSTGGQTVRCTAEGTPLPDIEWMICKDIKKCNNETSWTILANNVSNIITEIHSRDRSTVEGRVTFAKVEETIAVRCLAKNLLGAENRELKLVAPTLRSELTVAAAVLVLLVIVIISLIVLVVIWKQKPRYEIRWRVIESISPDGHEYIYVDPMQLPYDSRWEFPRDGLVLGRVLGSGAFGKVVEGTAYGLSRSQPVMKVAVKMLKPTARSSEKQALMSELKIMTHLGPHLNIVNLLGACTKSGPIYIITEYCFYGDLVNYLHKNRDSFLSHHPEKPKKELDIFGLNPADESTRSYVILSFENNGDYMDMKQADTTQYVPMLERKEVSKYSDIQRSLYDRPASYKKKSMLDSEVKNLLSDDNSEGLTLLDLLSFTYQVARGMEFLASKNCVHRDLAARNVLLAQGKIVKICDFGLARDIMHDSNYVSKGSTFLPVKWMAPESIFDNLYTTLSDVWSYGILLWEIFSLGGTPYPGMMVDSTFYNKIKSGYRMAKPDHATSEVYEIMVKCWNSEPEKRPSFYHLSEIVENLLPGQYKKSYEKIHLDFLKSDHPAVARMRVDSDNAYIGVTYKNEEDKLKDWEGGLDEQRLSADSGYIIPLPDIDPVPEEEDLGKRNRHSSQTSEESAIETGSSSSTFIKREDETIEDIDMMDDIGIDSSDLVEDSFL
T4 sequence (P42685 whole entry): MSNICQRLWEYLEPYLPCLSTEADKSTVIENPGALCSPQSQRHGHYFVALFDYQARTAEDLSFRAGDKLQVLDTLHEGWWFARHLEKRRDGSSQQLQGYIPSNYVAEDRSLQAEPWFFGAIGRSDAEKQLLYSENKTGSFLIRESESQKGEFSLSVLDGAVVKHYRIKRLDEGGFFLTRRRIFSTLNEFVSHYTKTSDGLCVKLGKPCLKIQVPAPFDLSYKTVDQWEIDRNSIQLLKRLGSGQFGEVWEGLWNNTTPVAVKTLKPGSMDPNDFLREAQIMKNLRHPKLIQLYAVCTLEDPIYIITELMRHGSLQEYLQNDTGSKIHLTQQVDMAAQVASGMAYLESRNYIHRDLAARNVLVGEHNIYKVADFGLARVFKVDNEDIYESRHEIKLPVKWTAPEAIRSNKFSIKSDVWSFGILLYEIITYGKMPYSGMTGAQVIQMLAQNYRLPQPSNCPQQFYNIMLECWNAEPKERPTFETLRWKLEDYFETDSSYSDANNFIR
T3 sequence (P00533 with tags, fused parts or gaps DEL747-750/T751S limits assumed): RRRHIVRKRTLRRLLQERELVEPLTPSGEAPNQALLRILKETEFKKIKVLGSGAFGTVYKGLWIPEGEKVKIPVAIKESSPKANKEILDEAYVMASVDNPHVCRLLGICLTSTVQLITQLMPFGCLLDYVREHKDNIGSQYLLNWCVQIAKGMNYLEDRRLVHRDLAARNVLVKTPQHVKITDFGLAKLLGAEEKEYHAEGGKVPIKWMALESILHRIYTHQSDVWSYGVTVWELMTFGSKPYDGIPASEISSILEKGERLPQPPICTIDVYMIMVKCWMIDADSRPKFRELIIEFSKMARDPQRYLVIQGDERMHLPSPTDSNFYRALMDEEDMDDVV

Take `CCc1ccc2c(c1)C1(NN=C(c3cccc4ccccc34)S1)C(=O)N2` (centres unmarked) [OGM1, 5-ethyl-5′-naphthalen-1-ylspiro[1H-indole-3,2′-3H-1,3,4-thiadiazole]-2-one]: the remaining binding at 10 µM in data set [1] turned out to be 100%; in data set [2], 100%; in [3], 100%; in data set [4], 100%; in data set [5], 78%; in [6], 100%. Also, in [7], the remaining binding at 10 µM was found to be 100%. In addition, the Antagonism is on record as 7.7 in [8] (10 uM); 8.9 in data set [9] (10 uM); 1 in data set [10] (10 uM); −12.3 in data set [11] (10 uM); −11.1 in data set [12] (10 uM). The Agonism in data set [8] (12.5 uM) is 0.9; in [9] (12.5 uM) it was 0.9; in [10] (12.5 uM) it was 0; in [11] (12.5 uM) it was 1.2; in data set [12] (12.5 uM) it was −0.3. The “interaction with kinase domains” value in data set [13] is recorded as “did not physically interact with the kinase domain of any kinase”.
In the case of `CCc1ccc2c(c1)C1(NN=C(c3ccccc3)S1)C(=O)N2` (centres unmarked) [OGM2], in data set [14], the “% Survival 2 μM OGM” value is 39.8% and the “% Survival 10 μM OGM” value is reported as 25.0%. Besides, the CC50 in data set [14] (Homo sapiens, SW480, read-out: LC50 (the source's name)) is under 2000 nM. Further, the excess cell death result in data set [15] is recorded as “did not induce excess cell death in zebrafish larvae”. Besides, the Mucin production result in [16] is given as “inhibits Mucin production”.
